Data taken from ChEMBL document CHEMBL1124290, “6- and 8-hydroxy-3,4-dihydro-3-(dipropylamino)-2H-1-benzopyrans. Dopamine agonists with autoreceptor selectivity” (J Med Chem, 1988).

Legend:
Mus musculus [1] = assay: Dose required for reversal of reserpine-induced depression in mice (sc)
Rattus norvegicus = assay: Dose (ip) giving half-maximal reversal of the gamma-butyrolactone-induced increase in DOPA formation of rat striatum; assay type: functional
Mus musculus [2] = assay: Dose required for inhibition of locomotor activity in mice (sc)
[3] = Ratio of ED50 values for the inhibition of locomotor activity to reversal of reserpine-induced depression; assay type: functional

Row | SMILES | ED50 (Mus musculus [1]) [mg/kg] | ED50 (Rattus norvegicus) [mg/kg] | ED50 (Mus musculus [2]) [mg/kg] | Ratio [3]
1 | CN1CCc2cccc3c2[C@H]1Cc1ccc(O)c(O)c1-3 [APOMORPHINE] | 0.096 | 0.04 | 0.021 | –
2 | CCCN(CCC)C1COc2ccc(O)cc2C1 (stereo unspecified) | 13.4 | 0.85 | 0.17 | 79
3 | CCCN(CCC)C1COc2c(O)cccc2C1 (stereo unspecified) | 3.95 | 0.05 | 0.013 | 304
